Measurements: patent publication EP0220825A2, “Pharmaceutical composition for topical application” (DIOMED DEVELOPMENTS LIMITED, priority 1985, dated 1987)
“And” between values parts separate entries of the source, which are not always exact repeats. Equal entries are not always repeated.

Key:
local blood flow = experiment: Laser Doppler flowmeter measurement of blood cell flux after topical application; format: in vivo; settings: for No. measurable responses: of ten subjects; for Time to response Initial / Time to response Peak / Time to response Return to zero: ± S.D.
From the text: The blood cell flux is then given by the product of the number of red blood cells found to be moving in the irradiated volume of skin and adjacent tissue and the mean red blood cell velocity. The results expressed by the flowmeter indicate the relative change of the blood cell flux over control conditions, i.e. before application of the composition. […] The figures for "area" given in the third column are obtained by graphical integration of a graph of blood cell flux against time obtained using the laser Doppler flowmeter. Any figure in this column greater than about 20 may be regarded as indicative of a useful improvement in local blood flow in the treated area. […] Thus the compositions in accordance with the invention make it possible to obtain a useful increase in local blood flow without appreciable erythema. The compositions of the present invention are thus useful in preventing pressure sores where is it desired to stimulate local blood flow without obvious erythema.

skin = experiment: Erythema score after topical application; format: in vivo
From the text: Using an erythema scale of 0 to 3, an erythema value of up to 0.5 (which is barely detectable) is considered acceptable. The figures for "area" given in the third column are obtained by graphical integration of a graph of blood cell flux against time obtained using the laser Doppler flowmeter. Any figure in this column greater than about 20 may be regarded as indicative of a useful improvement in local blood flow in the treated area. […] Thus the compositions in accordance with the invention make it possible to obtain a useful increase in local blood flow without appreciable erythema. The compositions of the present invention are thus useful in preventing pressure sores where is it desired to stimulate local blood flow without obvious erythema.

Erythema (skin; 0.025 % hexyl nicotinate lotion, site arms, single subjects, score 0-3 (0=No erythema, 3=severe erythema)): 0 (4×) and 0.5
Erythema (skin; 0.025 % hexyl nicotinate lotion, site buttocks, single subjects, score 0-3): 0 (4×) and 1
Erythema (skin; 0.05 % hexyl nicotinate lotion (Example l), site arms, single subjects, score 0-3): 0 (2×) and 0.5 (2×) and 1
Erythema (skin; 0.05 % hexyl nicotinate lotion (Example l), site buttocks, single subjects, score 0-3): 1 (2×) and 0.5 and 0 (2×)
Erythema (skin; 0.10 % hexyl nicotinate lotion, site arms, single subjects, score 0-3): 2 (3×) and 0 and 1
Erythema (skin; 0.10 % hexyl nicotinate lotion, site buttocks, single subjects, score 0-3): 2 and 1 and 0.5 (2×) and 3
Erythema (skin; summary of ten subjects, 0.025 % hexyl nicotinate, score 0-3): 0.15
Erythema (skin; summary of ten subjects, 0.05 % hexyl nicotinate, score 0-3): 0.45
Erythema (skin; summary of ten subjects, 0.10 % hexyl nicotinate, score 0-3): 1.40
SMILES: CCCCCCOC(=O)c1cccnc1 [hexyl nicotinate, Hexyl nicotinate]
Area (local blood flow; 0.025 % hexyl nicotinate lotion, site arms, single subjects, area under curve of blood cell flux against time, adjusted to a sensitivity of 1): 0 cm^2 (4×) and 124.05 cm^2
Area (local blood flow; 0.025 % hexyl nicotinate lotion, site buttocks, single subjects, area under curve of blood cell flux against time): 5.00 cm^2 and 0 cm^2 (3×) and 51.59 cm^2
Area (local blood flow; 0.05 % hexyl nicotinate lotion (Example l), site arms, single subjects, area under curve of blood cell flux against time): 32.17 cm^2 and 0 cm^2 and 89.59 cm^2 and 80.90 cm^2 and 126.32 cm^2
Area (local blood flow; 0.05 % hexyl nicotinate lotion (Example l), site buttocks, single subjects, area under curve of blood cell flux against time): 91.86 cm^2 and 22.28 cm^2 and 4.29 cm^2 and 0 cm^2 and 64.73 cm^2
Area (local blood flow; 0.10 % hexyl nicotinate lotion, site arms, single subjects, area under curve of blood cell flux against time): 103.06 cm^2 and 0 cm^2 and 82.80 cm^2 and 152.26 cm^2 and 119.99 cm^2
Area (local blood flow; 0.10 % hexyl nicotinate lotion, site buttocks, single subjects, area under curve of blood cell flux against time): 246.74 cm^2 and 119.97 cm^2 and 0 cm^2 and 5.24 cm^2 and 199.76 cm^2
No. measurable responses (local blood flow; 0.025 % hexyl nicotinate): 2
No. measurable responses (local blood flow; 0.05 % hexyl nicotinate): 8
No. measurable responses (local blood flow; 0.10 % hexyl nicotinate): 8
Area (local blood flow; summary of ten subjects, 0.025 % hexyl nicotinate): 18.05 cm^2
Area (local blood flow; summary of ten subjects, 0.05 % hexyl nicotinate): 51.21 cm^2
Area (local blood flow; summary of ten subjects, 0.10 % hexyl nicotinate): 102.98 cm^2
Time to response Initial (local blood flow; 0.025 % hexyl nicotinate): 5.5 ± 0.7 min
Time to response Peak (local blood flow; 0.025 % hexyl nicotinate): 22.5 ± 6.4 min
Time to response Return to zero (local blood flow; 0.025 % hexyl nicotinate): 78.5 ± 16.3 min
Time to response Initial (local blood flow; 0.05 % hexyl nicotinate): 10.6 ± 5.0 min
Time to response Peak (local blood flow; 0.05 % hexyl nicotinate): 27.9 ± 12.3 min
Time to response Return to zero (local blood flow; 0.05 % hexyl nicotinate): 75.8 ± 19.2 min
Time to response Initial (local blood flow; 0.10 % hexyl nicotinate): 7.8 ± 2.3 min
Time to response Peak (local blood flow; 0.10 % hexyl nicotinate): 20.8 ± 6.4 min
Time to response Return to zero (local blood flow; 0.10 % hexyl nicotinate): 83.3 ± 17.7 min
Erythema (skin; concentrations in the range 0.l to 0.2% by weight of the composition, patients): cause erytheme in a significant proportion of patients
